# Like-named read-outs stand apart in the source and are kept apart here.
# What was measured:
# HSF1 = molecular target: T1, HSF1 (Homo sapiens, UniProt Q00613); conditions: at a concentration of 125-500 μM; cited from earlier work
# T1 sequence (Q00613 1-529): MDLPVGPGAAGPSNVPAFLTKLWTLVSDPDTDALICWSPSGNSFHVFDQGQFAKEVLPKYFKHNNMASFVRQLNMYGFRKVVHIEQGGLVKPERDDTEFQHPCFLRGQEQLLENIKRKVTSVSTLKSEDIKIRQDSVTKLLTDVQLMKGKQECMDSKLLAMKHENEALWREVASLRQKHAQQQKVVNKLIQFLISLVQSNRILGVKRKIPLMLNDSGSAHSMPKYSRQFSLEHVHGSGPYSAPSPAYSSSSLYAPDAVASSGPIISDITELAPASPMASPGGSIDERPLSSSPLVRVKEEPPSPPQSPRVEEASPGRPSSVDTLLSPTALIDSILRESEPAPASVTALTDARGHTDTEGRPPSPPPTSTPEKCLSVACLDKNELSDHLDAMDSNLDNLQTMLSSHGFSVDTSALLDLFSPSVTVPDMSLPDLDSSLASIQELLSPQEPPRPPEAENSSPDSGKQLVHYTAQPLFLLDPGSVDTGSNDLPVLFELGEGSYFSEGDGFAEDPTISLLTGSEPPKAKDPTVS
# NF-κB [1] = molecular target: T2, NF-κB (Homo sapiens, UniProt Q04206); conditions: at a concentration of 125-500 μM; cited from earlier work
# T2 sequence (Q04206 whole entry): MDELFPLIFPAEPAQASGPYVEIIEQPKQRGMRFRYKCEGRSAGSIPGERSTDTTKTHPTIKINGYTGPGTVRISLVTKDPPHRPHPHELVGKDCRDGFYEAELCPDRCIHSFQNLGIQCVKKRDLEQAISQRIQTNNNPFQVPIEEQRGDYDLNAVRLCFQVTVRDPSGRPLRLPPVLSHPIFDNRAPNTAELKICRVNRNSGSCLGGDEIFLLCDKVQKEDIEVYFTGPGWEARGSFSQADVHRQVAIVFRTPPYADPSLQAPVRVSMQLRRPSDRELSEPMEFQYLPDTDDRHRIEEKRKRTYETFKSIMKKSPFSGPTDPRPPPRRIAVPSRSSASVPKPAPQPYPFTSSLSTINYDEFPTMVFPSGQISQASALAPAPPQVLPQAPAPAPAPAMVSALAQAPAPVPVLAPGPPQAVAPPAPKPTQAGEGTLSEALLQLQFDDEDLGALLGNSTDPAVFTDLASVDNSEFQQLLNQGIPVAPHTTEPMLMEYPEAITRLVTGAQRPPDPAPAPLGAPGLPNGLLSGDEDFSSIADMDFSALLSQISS
# T2 sequence (P19838 1-433 partner limits assumed): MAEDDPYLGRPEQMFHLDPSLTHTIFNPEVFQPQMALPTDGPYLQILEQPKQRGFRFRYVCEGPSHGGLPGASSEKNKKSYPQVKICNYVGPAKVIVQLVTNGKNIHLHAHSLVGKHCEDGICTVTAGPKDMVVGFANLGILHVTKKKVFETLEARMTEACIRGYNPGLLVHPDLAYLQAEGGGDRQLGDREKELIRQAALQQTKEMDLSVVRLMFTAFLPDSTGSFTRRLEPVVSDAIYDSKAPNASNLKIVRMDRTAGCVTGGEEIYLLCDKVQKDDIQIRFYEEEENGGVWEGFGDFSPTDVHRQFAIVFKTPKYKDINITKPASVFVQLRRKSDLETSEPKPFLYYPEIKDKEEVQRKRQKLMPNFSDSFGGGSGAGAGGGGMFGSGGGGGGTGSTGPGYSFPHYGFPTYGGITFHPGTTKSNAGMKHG
# [2] = system: parainfluenza Sendai virus (SV); assay: microbe, parasite or virus in culture; assay type: cell-based; conditions: for IC50: Respirovirus muris; for inhibition of Sendai virus replication: 37RC cells, virus yield at 24 hours after infection
# 37RC cells [3] = assay: Toxicity to uninfected 37RC cells, determined visually by microscopy; assay type: cell-based, Monkey
# NF-κB [4] = molecular target: T2, NF-κB; assay: EMSA of NF-κB DNA-binding activity in TPA-stimulated Jurkat T cells; assay type: cell-based; parameters: endogenous in cells; host or cells: Jurkat T cells (human lymphoblastoid), TPA-stimulated; whole-cell extracts; conditions: test compound 1 hour then TPA 25 ng/ml, extracts after 3 hours
# Experimental: Methods: Human lymphoblastoid Jurkat T cells were grown at 37° C. in a 5% CO2 atmosphere in RPM1 1640 medium (GIBCO BRL, Gaithersburg, Md.) supplemented with 10% fetal calf serum (FCS, Hyclone Europe Ltd, UK) 2 mM glutamine and antibiotics according to the method described by A. Rossi et al. (Proc. Natl. Acad. Sci. USA 94: 746-750, 1997). The test compounds were stored as a 100% ethanolic stock solution (100 mM) or in DMSO (100 mM and diluted to the appropriate concentration in culture medium at the time of use. Cells were treated with different concentrations of test compound for 1 hour and then stimulated with 12-O-tetradecanoylphorbol-13-acetate (TPA, 25 ng/ml), which is a strong inducer of NF-κB. Control cells received an equal amount of control diluent. After 3 hours whole-cell extracts were prepared and subjected to analysis of DNA-binding activity by EMSA (Electrophoretic Mobility Shift Assay) for detection of HSF or NF-κB activation, according to the method described by A. Rossi et al. (Proc. Natl. Acad. Sci. USA 94: 746-750, 1997).
# Specificity of protein-DNA complexes was verified by immunoreactivity with polyclonal antibodies specific for p65 (Rel A) or for HSF-1, for NF-κB and HSF respectively. Quantitative evaluation of NF-κB- and HSF-DNA complex formation was determined by Molecular Dynamics Phosphorlmager (MDP) analysis and was expressed in arbitrary units, as described in A. Rossi et al.(J. Biol. Chem. 273: 16446-16452, 1998). The results from representative experiments are shown in FIGS. 1(b), 2(b), 3(b), 4(b), 5(b), 6 and 7(b) for compounds CTC-31, CTC-32, CTC-33, CTC-34, CTC-35, CTC-36 and CTC-45, as identified above.
# [5] = system: Herpes simplex virus type one (HSV-1), strain F; assay: HSV-1 replication in Hep-2 cells, virus titre by CPE 50% assay on VERO cells; assay type: cell-based, Herpes simplex virus type 1; conditions: Human alphaherpesvirus 1, HEp-2, 24 h, read-out: ID50 (50% inhibitory dose/concentration), HSV-1 virus replication
# Experimental: Methods: Human Hep-2 laryngeal carcinoma cells and monkey VERO cells were grown at 37° C. under the conditions described in Example 9 for T cells. Cell viability was determined by dye exclusion technique or by 3-(4,5-dimethylthiazol-2-yl)-2,5-diphenyl-tetrazolium bromide (MTT, Sigma Chemical Co.) to MTT formazan assay, as described by F. Denizot and R. Lang (J. Immunol. Methods 89: 271-277, 1986). Herpes simplex virus type one (HSV-1), strain F grown in VERO cells, was used at a multiplicity of infection of 10 plaque forming units (PFU) per cell. Confluent Hep-2 cell monolayers were infected with HSV-1 for 1 h at 37° C. After this time, virus inocula were removed and cells incubated in RPMI 1640 medium containing 2% FCS. Different concentrations of CTC-35 were added to the culture after the 1 h adsorption period, and maintained in the medium for the duration of the experiment. […] HSV-1 virus titres were determined 24 hours after infection by cytopathic effect 50% (CPE 50%) assay on confluent VERO cells monolayers in 96-well tissue culture plates (six dilutions for each sample, eight wells for each dilution), as described by F. Pica et al. (Antiviral Res. 20: 193-208, 1993). The dilution that gives 50% cytopathic effect were determined by the interpolating procedure of Reed and Muensch, as described by E. Rodriguez-Boulan Methods Enzymol. 98: 486-501, 1983).
# 37RC cells [6] = assay: MTT cell viability assay, uninfected 37RC cells; assay type: cell-based, Monkey; conditions: 24 hours
# Experimental: (§1) Cell viability was determined by the 3-(4,5-dimethylthiazol-2-yl)-2,5-diphenyltetrazolium bromide MIT) assay. Uninfected A549 (7.5×10^4 cells/well in 96 well plates) or 37RC cells (2.5×10^4 cells/well in 96 well plates) were treated with different concentrations of CTC35 or ethanol diluent for 24 hours. After this time, […] of a 0.5% MIT solution in PBS was added to the monolayers and the mixture was incubated for 2 h at 37° C. Reduced MTT (formazan) was extracted from cells by adding 100 μl of acidic isopropanol containing 10% Triton X-100, and formazan absorbance was measured in an ELISA microplate reader at two different wavelengths (540 and 690 nm).
# A549 cells = assay: MTT cell viability assay, uninfected A549 cells; assay type: cell-based, Human; conditions: 24 hours
# Experimental: as §1
# [7] = anaesthetized rat, intravenous infusion, doses from 30 μg/kg/min; cited from earlier work
# [8] = Sendai virus in 37RC cells, at 24 hours, read-out: ID50 (the source's name)
SMILES,"IC50 ([2]; 24 h, read-out: ID50) [nM]",TD100 (concentration 100% toxic to uninfected cells) (37RC cells [3]) [µM],inhibition of Sendai virus replication [2],"inhibition of NF-κB (NF-κB-DNA complex formation, EMSA) (NF-κB [4])",other results
O=C1C=CCC1 [cyclopent-2-en-1-one],,,,,activation of HSF1 (HSF1): able to activate HSF1; block of NF-κB activation by chemical or physiological inducers (NF-κB [1]): able to block NF-κB activation
"CC(C)(C)[Si](C)(C)OC1C=CC(=O)/C1=C/c1ccccn1 (stereo not drawn) [CTC-32, 4-tert.butyldimethylsilyloxy-5-[methylene-(2-pyridyl)]-cyclopent-2-ene-1-one]",2000,10,,,
"CC(C)(C)[Si](C)(C)OC1C=CC(=O)/C1=C/c1ccccc1 (stereo not drawn) [CTC-33, 5-benzylidene-4-[(tert-butyldimethylsilyl)oxy]-2-cyclopentene-1-one]",,50,potent inhibitors of Sendai virus replication,potent inhibitors of NF-κB,"IC50 [2, 8]: 1500 nM"
CC(C)/C=C1\C(=O)C=CC1O[Si](C)(C)C(C)(C)C (stereo not drawn) [CTC-35],,50,potent inhibitors of Sendai virus replication,potent inhibitors of NF-κB,"IC50 [2, 8]: 400 nM; IC50 [5]: 1510 nM; LD50 (Lethal dose/concentration 50%) (37RC cells [6]): 30 µM; LD50 (Lethal dose/concentration 50%) (A549 cells): 90 µM"
"CCCCCCC/C=C1/C(=O)C=CC1O[Si](C)(C)C(C)(C)C (stereo not drawn) [CTC-34, 4-tert.butyldimethylsilyloxy-5-(oct-1-ene)-cyclopent-2-ene-1-one]",3000,50,potent inhibitors of Sendai virus replication,potent inhibitors of NF-κB,
CCCCC[C@H](O)/C=C/[C@H]1C=CC(=O)[C@@H]1CCCCCCC(=O)O [Prostaglandin A1],,,,,effect on blood pressure [7]: dose-dependant falls in blood pressure
CCCCC[C@H](O)/C=C/[C@H]1[C@H](O)CC(=O)[C@@H]1CCCCCCC(=O)O [Prostaglandin E1],,,,,effect on blood pressure [7]: dose-dependant falls in blood pressure
"CC/C=C1/C(=O)C=CC1O[Si](C)(C)C(C)(C)C (stereo not drawn) [CTC-31, 4-tert.butyldimethylsilyloxy-5-(prop-1-ene)-cyclopent-2-ene-1-one]",1000,50,potent inhibitors of Sendai virus replication,potent inhibitors of NF-κB,
"CCC/C=C1/C(=O)C=CC1O[Si](C)(C)C(C)(C)C (stereo not drawn) [CTC-45, butyldimethylsilyloxy-5-[but-1-ene]-cyclopent-2-ene-1-one]",3000,50,potent inhibitors of Sendai virus replication,potent inhibitors of NF-κB,
CC(C)/C=C1/C(=O)C=CC1O[Si](C)(C)C(C)(C)C (stereo not drawn) [CTC-36],,,,potent inhibitors of NF-κB,
